Laboratory results: patent US5376679A, “Bicyclic or tricyclic biocidal compounds” (Shell Internationale Research Maatschappij B.V., priority 1988, dated 1994)
≈ marks a conversion by molar mass, not a printed value.

Assays:
[1] = test system: Pseudocercosporella herpotrichoides; test: In vitro activity against wheat eyespot (Ph); type: cell-based; design: Ph: activity against wheat eyespot: scale not given here; details: in vitro, 100 ppm in agar, 11 days; activity grade 1 or 2, not defined
Description: (c) Activity Against Wheat Eyespot (Pseudocercosporella herpotrichoides; Ph)
The test is an in vitro one. Samples are prepared wherein 0.7 mls solution containing 2 mg active material dissolved in acetone is evenly dispersed in 20 ml molten half-strength potato dextrose agar (formed by dissolving 2 g potato extract, 10 g dextrose and 7.5 g agar in 1 liter of water and sterilising for 15 minutes and 121° C.) and the resulting 20 ml portions are allowed to set in 9 cm petri dishes. The concentration of active material in the resulting samples is 100 ppm. Upon setting, two plugs of 5 mm diameter taken from the advancing edge of a stock plate of a 3 to 4 week old culture of P.herpotrichoides on full strength potato dextrose agar, incubated at 20°-22° C. in darkness, are placed, equally spaced on the surface of each sample, mycelial side uppermost. The samples are incubated for 11 days at 20°-22° C. in darkness before assessment. Diametric growth is measured with the width of the plug subtracted and results compared with growth on a sample wherein 0.7 ml acetone containing no active material is dispersed in 20 ml half-strength potato agar.

[2] = test system: Fusarium culmorum; test: Activity against seedling wheat blight, soil drench (Fs); type: in vivo; design: scale not given here; details: 10 kg/ha, 21 days, activity grade 1 or 2, not defined
Description: (d) Activity Against Seedling Wheat Blight (Fusarium culmorum; Fs)
The test is an anti-sporulant one using a soil drench. Surface sterilised wheat seeds (var Waggoner) are inoculated by soaking in an aqueous suspension containing 7×10^5 spores/ml (60 mg seed per 80 ml suspension) at 22° C. for 6 hours. The seeds are then sown in pots (5 per pot) in sand at a depth of 1 cm. 1 day after inoculation and planting the active material is applied at a rate of 10 kg/ha by pouring on a soil drench (concentration 0.36 g/l active material in 12% v/v acetone/water) evenly over the sand. The pots are then transferred to a glasshouse, kept at 25° C. and watered sparingly. 21 days after inoculation the resulting seedlings are removed from the pots and their roots are gently washed. Visual assessment is made based on lesion development on stem base and upper roots in comparison with control seedlings.

[3] = test system: Erysiphe graminis f.sp. hordei; test: Direct antisporulant activity against barley powdery mildew (Eg); type: in vivo; design: scale not given here; details: foliar spray, 1 kg/ha; activity grade 1 or 2, not defined
Source text: (f) Activity Against Barley Powdery Mildew (Erysiphe graminis f.sp. hordei; Eg) The test is a direct antisporulant one, using a foliar spray. Leaves of barley seedlings, cultivar Golden Promise, are inoculated by dusting with mildew conidia one day prior to treatment with the test compound. The inoculated plants are kept overnight at glasshouse ambient temperature and humidity prior to treatment. […] After drying, plants are returned to a compartment at ambient temperature and humidity for up to 7 days, followed by assessment. Assessment is based on the percentage of leaf area covered by sporulation compared with that on leaves of control plants.

[4] = test system: Alternaria Solani; test: Direct protectant activity against tomato early blight (As); type: in vivo; design: As: activity against tomato early blight: scale not given here; details: foliar spray as under (a), 8 days; activity grade 1 or 2, not defined; further: dose 1000 g/ha
Description: (g) Activity Against Tomato Early Blight (Alternaria Solani; As). The test is a direct protectant one using a foliar spray. The upper surfaces of leaves of young tomato plants are sprayed with a solution of active material as described in (a) above. After 24 hours under normal glasshouse conditions, the upper surfaces of the leaves are inoculated by spraying with an aqueous suspension containing 10^4 spores/ml. The inoculated plants are kept for 72 hours in a high humidity compartment and are then removed to lower humidity (50-70% relative humidity). Assessment is made 8 days after inoculation.

[5] = test system: Puccinia Recondita; test: Direct protectant activity against wheat brown rust (Pr); type: in vivo; design: scale not given here; details: foliar spray, 1 kg/ha, 10 days; activity grade 1 or 2, not defined
Description: (i) Activity Against Wheat Brown Rust (Puccinia Recondita; Pr) The test is a direct protectant one using a foliar spray. […] The plants are then sprayed with the test compound at a dosage of 1 kg/ha using a track sprayer as described under (a). Test compounds are applied as solutions or suspensions in a mixture of acetone and water (50:50 v/v) containing 0.04% surfactant ("TWEEN 20"--Trade Mark). 18-24 hours after treatment, the seedlings are inoculated by spraying the plants from all sides with an aqueous spore suspension containing about 10^5 spores/ml. For 18 hours after inoculation, the plants are kept in high humidity conditions at a temperature of 20°-22° C. Thereafter, the plants are kept in ambient glasshouse conditions, that is, in moderate relative humidity and at a temperature of 20° C. The disease is assessed 10 days after inoculation on the basis of the percentage of the plant covered by sporulating pustules compared with that on the control plants.

[6] = test system: Plasmopara viticola; test: Direct protectant activity against vine downy mildew (Pvp); type: in vivo; design: Pvp: direct protectant activity against vine downy mildew: scale not given here; details: foliar spray, 1 kg/ha; activity grade 1 or 2, not defined
Source text: (a) Direct Protectant Activity Against Vine Downy Mildew (Plasmopara viticola; Pvp)
The test is a direct protectant one, using a foliar spray. The lower surfaces of leaves of whole vine plants (cv Cabernet Sauvignon) are sprayed with a solution of active material in 1:1 v/v water/acetone containing 0.04% w "Triton X-155" (trade mark) (octylphenol polyoxyethylene surfactant), at a dosage of 1 kilogram of active material per hectare using a track sprayer which delivers 620 liters/ha, and after a subsequent 24 hours under normal glasshouse conditions the lower surfaces of the leaves are inoculated by spraying with an aqueous solution containing 10^4 zoosporangia/ml. The inoculated plants are kept for 24 hours in a high humidity compartment, 5 days under normal glasshouse conditions and then returned for a further 24 hours to high humidity. Assessment is based on the percentage of leaf area covered by sporulation compared with that on control leaves.

[7] = test system: Botrytis cinerea; test: Direct protectant activity against vine grey mould (Bcp); type: in vivo; details: foliar spray, 1 kg/ha; activity grade 1 or 2, not defined
Source text: (b) Direct Protectant Activity Against Vine Grey Mould (Botrytis cinerea; Bcp) The test is a direct protectant one using a foliar spray and is effected as described under (a), with the difference that the leaves are inoculated by spraying with an aqueous solution containing 10^5 conidia/ml.

[8] = test system: Leptosphaeria nodorum; test: Direct antisporulant activity against wheat leafspot (Ln); type: in vivo; design: scale not given here; details: foliar spray, 1 kg/ha; activity grade 1 or 2, not defined
Description: (e) Activity Against Wheat Leafspot (Leptosphaeria nodorum; Ln) The test is a direct antisporulant one, using a foliar spray. Leaves of wheat plants ([…]), at the single leaf stage, are inoculated by spraying with an aqueous suspension containing 8×10^5 spores/mi. The inoculated plants are kept for 24 hours in a high humidity compartment prior to treatment. […] After drying, the plants are kept for 5 days under normal glasshouse conditions, followed by assessment. Assessment is based on the percentage of leaf area covered by sporulation compared with that on leaves of control plants.

[9] = test system: Staphylococcus aureus; test: Minimum inhibitory concentration, Staphylococcus aureus (Sa); type: cell-based, Staphylococcus aureus (NCIB 6571); details: 30° C., 24 and 72 hours
Description: (§1) In respect of S. aureus, B. subtilis and E. coli, the microorganisms were cultured in 50 ml aliquots of a tryptone soya broth in 250 ml conical flasks at 30° C. on a rotary shaker at 200 rpm for 24 hours. Tryptone soya broth was prepared by adding 17 g pancreatic digest of casein, 3 g […] digest of soyabean meal, 5 g of sodium chloride, 2.5 g of dipotassium hydrogen phosphate and 2.5 g of dextrose to 1 liter of distilled water, mixing and sterilising by autoclaving at 121° C. for 15 minutes. 1 ml aliquots of the resulting cultures were mixed with 99 ml of fresh tryptone soya broth and used as inocula for tests. […] Test procedures were as follows: (ii) Dilution Series for Other Test Bacteria, Yeast and Filamentous Fungi Dilution series from the stock solution of each compound were prepared in sterile distilled water. These contained 50, 100, 500 and 1000 ppm compound. To duplicate wells of a compartmentalised square petri dish 0.3 ml of each test compound concentration was added together with 2.7 ml of one of the microbial inocula described above. […] After incubation, in the dark, at 30° C. the wells were examined for the presence or absence of growth. Bacterial and yeast cultures were examined after 24 hours and 72 hours incubation and the fungi cultures after 3, 7 and 10 days. By means of the above tests minimum inhibitory concentrations were determined for the various test compounds.

[10] = test system: Bacillus subtilis; test: Minimum inhibitory concentration, Bacillus subtilis (Bs); type: cell-based; details: 30° C., 24 and 72 hours
Description: as §1

[11] = test system: Escherichia coli; test: Minimum inhibitory concentration, Escherichia coli (Ec); type: cell-based, Escherichia coli (NCIB 9517); details: 30° C., 24 and 72 hours
Description: as §1

[12] = test system: Desulfovibrio sp.; test: Minimum inhibitory concentration, sulphate-reducing bacteria (Dsp); type: cell-based; details: 30° C., 2, 5 and 10 days
Description: The sulphate reducing bacteria Desulfovibrio sp. were cultured in a modified Postgate's Medium B for 48 hours at 30° C. and used directly as an inoculum. The modified Postgate's Medium B consisted of 0.5 g dipotassium hydrogen phosphate, 1 g ammonium chloride, 1 g sodium sulphate, 5 g sodium lactate, 1 g yeast extract, 0.1 ml thioglycolic acid, 0.1 ml ascorbic acid, 0.5 g ferrous sulphate heptahydrate, 750 ml aged seawater and 250 ml distilled water, pH adjusted to 7.8, divided into aliquots and sterilised by autoclaving at 121° C. for 15 minutes. […] Test procedures were as follows: (i) Suphate-reducing Bacteria Test Dilution Series Duplicate aliquots (9.9 ml) of dilution series from the stock solutions of each compound were prepared in a modified Postgate's Medium B described above. These contained 100 ppm compound. These were then inoculated with 0.1 ml of inoculum. After incubation at 30° C., the presence or absence of growth--as indicated by a blackening of the medium due to ferrous sulphide production--was recorded at 2, 5 and 10 days. […] By means of the above tests minimum inhibitory concentrations were determined for the various test compounds.

[13] = test system: Saccharomyces cerevisiae; test: Minimum inhibitory concentration, yeast (Sc); type: cell-based, Saccharomyces cerevisiae (ATCC 9763); details: 30° C., 24 and 72 hours
Description: Inocula of S. cerevisiae were prepared as for S. aureus, B. subtilis and E. coli, but using yeast malt broth in place of the typtone soya broth. The yeast malt broth was prepared by suspending 3 g yeast extract, 3 g malt extract, 5 g peptone and 10 g dextrose in 1 liter of distilled water, warming to achieve solution and sterilising by autoclaving at 121° C. for 15 minutes.
(§2) Test procedures were as follows:
(§3) (ii) Dilution Series for Other Test Bacteria, Yeast and Filamentous Fungi
(§4) Dilution series from the stock solution of each compound were prepared in sterile distilled water. These contained 50, 100, 500 and 1000 ppm compound. To duplicate wells of a compartmentalised square petri dish 0.3 ml of each test compound concentration was added together with 2.7 ml of one of the microbial inocula described above. This gave final concentrations of the test compound of 5, 10, 50 and 100 ppm.
(§5) After incubation, in the dark, at 30° C. the wells were examined for the presence or absence of growth. Bacterial and yeast cultures were examined after 24 hours and 72 hours incubation and the fungi cultures after 3, 7 and 10 days.
(§6) By means of the above tests minimum inhibitory concentrations were determined for the various test compounds.

[14] = test system: Aspergillus niger; test: Minimum inhibitory concentration, Aspergillus niger (An); type: cell-based, Aspergillus niger (CMI 17454); details: 30° C., 3, 7 and 10 days
Description: (§7) Inocula of the fungi Aspergillus niger, Cladosporium resinae and Chaetomium globosum were prepared containing 5×10^5 conidia/ml in a potato dextrose broth. The potato dextrose broth was prepared by suspending 4 g potato extract and 20 g dextrose in 1 liter of distilled water, warming to achieve solution, separating into aliquots and sterilising by autoclaving at 121° C. for 15 minutes.
as §2, §3, §4, §5, §6

[15] = test system: Cladosporium resinae; test: Minimum inhibitory concentration, Cladosporium resinae (Cr); type: cell-based; details: Amorphotheca resinae, 30° C., 3, 7 and 10 days
Description: as §7, §2, §3, §4, §5, §6

[16] = test system: Chaetomium globosum; test: Minimum inhibitory concentration, Chaetomium globosum (Chg); type: cell-based; details: 30° C., 3, 7 and 10 days
Description: as §7, §2, §3, §4, §5, §6

Compound | Ph: activity against wheat eyespot [1] | Fs: activity against seedling wheat blight [2] | Eg: activity against barley powdery mildew [3] | As: activity against tomato early blight [4] | Pr: activity against wheat brown rust [5] | Pvp: direct protectant activity against vine downy mildew [6] | Bcp: direct protectant activity against vine grey mould [7] | Ln: activity against wheat leafspot [8] | MIC [9] | MIC [10] | MIC [11] | MIC [12] | MIC [13] | MIC [14] | MIC [15] | MIC [16]
CCc1cc2cccc([N+]([O-])=NC#N)c2o1 [Example 19] | 1 | 1 | 1 | 2 | 2 |  |  |  |  |  |  |  |  |  |  | 
CC1(C)Cc2cccc([N+]([O-])=NC#N)c2O1 [Example 2] | 2 | 2 |  |  |  | 1 | 2 |  |  |  |  |  |  |  |  | 
N#CN=[N+]([O-])c1cccc2cc(-c3ccccc3)oc12 [Example 21] |  |  |  |  |  |  | 1 |  |  |  |  |  |  |  |  | 
COC(=O)N=[N+]([O-])c1cc(C)cc2c1OC(C)C2 (stereo not drawn) [Example 45] |  |  | 2 | 1 |  | 1 |  |  |  |  |  |  |  |  |  | 
Cc1cc2c(c([N+]([O-])=NC#N)c1)OC(C)(C)C2 [Example 7] | 1 | 1 |  |  | 2 | 2 |  | 1 |  |  |  |  |  |  |  | 
N#CN=[N+]([O-])c1ccc2oc3c(c2c1)CCCC3 [Example 24] | 1 | 1 |  | 2 | 1 | 2 |  |  |  |  |  |  |  |  |  | 
Cc1ccc([N+]([O-])=NC#N)c2c1CC(C)(C)O2 [Example 3] | 2 | 1 |  | 1 |  | 2 | 1 | 1 |  |  |  |  |  |  |  | 
Cc1cc2c(F)ccc([N+]([O-])=NC#N)c2o1 [Example 22] | 2 | 2 | 2 |  |  |  | 1 |  | > 100 µg/mL | 50 to 100 µg/mL (≈ 228 to 456 µM) | > 100 µg/mL | 50 µg/mL (≈ 228 µM) | 25 µg/mL (≈ 114 µM) | 10 µg/mL (≈ 45.6 µM) | 10 to 25 µg/mL (≈ 45.6 to 114 µM) | 5 µg/mL (≈ 22.8 µM)
CCCCc1cc2cccc([N+]([O-])=NC#N)c2o1 [Example 20] |  | 2 |  |  | 1 |  |  | 1 | > 100 µg/mL | > 100 µg/mL | > 100 µg/mL | > 100 µg/mL | > 100 µg/mL | 100 µg/mL (≈ 411 µM) | 100 µg/mL (≈ 411 µM) | 
